Reference: article PMC6338741 (Nature Communications, 2019)

Columns and labels:
[1] = tested on: E. faecalis v583; assay: Levodopa decarboxylation by stationary batch cultures co-incubated with human DOPA decarboxylase inhibitors; conditions: E. faecalis v583, OD600 ~2.0, stationary phase, 15 min, 100 µM levodopa, equimolar or 21.7 µM carbidopa
[2] = molecular target: T1, TDCEFS (Enterococcus faecalis, UniProt Q838D6); assay: IC50 curves with carbidopa as inhibitor, levodopa as substrate; format: biochemical, Enterococcus faecalis v583
T1 construct: 6xHis; made in house; host or cells: Escherichia coli BL21 (DE3), plasmid pSK18 (pET15b)
T1 sequence (Q838D6 whole entry): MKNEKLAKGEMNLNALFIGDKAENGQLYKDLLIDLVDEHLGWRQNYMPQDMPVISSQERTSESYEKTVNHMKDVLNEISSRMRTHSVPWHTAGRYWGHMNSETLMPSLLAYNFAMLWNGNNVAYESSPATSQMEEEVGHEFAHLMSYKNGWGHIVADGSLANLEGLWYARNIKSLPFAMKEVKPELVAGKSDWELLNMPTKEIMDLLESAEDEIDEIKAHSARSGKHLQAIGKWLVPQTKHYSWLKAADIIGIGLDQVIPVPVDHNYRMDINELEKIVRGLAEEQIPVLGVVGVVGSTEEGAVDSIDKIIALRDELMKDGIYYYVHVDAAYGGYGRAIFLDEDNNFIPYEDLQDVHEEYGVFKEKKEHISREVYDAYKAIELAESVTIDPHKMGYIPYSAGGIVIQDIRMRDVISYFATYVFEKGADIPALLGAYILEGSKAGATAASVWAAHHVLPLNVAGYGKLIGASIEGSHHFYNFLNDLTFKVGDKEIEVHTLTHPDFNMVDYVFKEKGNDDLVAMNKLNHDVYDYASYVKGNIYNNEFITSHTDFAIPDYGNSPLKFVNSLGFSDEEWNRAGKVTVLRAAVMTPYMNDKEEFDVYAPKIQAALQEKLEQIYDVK

[3] = molecular target: T2, ^PTDCEFM (Enterococcus faecium, UniProt A0A481NV25); assay: as above; format: biochemical, Enterococcus faecium W54
T2 construct: 6xHis; made in house; host or cells: Escherichia coli BL21 (DE3), plasmid pSK22 (pET15b)
T2 sequence (A0A481NV25 whole entry): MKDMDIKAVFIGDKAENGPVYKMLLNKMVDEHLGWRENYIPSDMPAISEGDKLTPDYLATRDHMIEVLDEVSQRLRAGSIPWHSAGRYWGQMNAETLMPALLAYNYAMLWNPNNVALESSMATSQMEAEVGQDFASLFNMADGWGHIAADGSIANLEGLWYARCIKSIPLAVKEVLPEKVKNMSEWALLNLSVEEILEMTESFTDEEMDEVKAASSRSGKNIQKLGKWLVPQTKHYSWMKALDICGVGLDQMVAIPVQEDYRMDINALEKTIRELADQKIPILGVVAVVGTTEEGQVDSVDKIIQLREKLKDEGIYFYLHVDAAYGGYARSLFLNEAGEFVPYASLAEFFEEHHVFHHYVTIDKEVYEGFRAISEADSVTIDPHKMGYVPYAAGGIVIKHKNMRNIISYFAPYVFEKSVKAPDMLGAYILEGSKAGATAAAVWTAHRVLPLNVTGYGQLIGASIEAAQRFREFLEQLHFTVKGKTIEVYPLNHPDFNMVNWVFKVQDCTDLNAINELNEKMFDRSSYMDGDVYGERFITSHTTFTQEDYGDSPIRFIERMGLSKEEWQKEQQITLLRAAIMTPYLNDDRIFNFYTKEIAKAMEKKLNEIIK

[4] = molecular target: T3, human DOPA decarboxylase (DDC) (Homo sapiens, UniProt P20711); assay: as above; format: biochemical
T3 construct: 6xHis; host or cells: Escherichia coli BL21 (DE3)
T3 sequence (P20711 1-480): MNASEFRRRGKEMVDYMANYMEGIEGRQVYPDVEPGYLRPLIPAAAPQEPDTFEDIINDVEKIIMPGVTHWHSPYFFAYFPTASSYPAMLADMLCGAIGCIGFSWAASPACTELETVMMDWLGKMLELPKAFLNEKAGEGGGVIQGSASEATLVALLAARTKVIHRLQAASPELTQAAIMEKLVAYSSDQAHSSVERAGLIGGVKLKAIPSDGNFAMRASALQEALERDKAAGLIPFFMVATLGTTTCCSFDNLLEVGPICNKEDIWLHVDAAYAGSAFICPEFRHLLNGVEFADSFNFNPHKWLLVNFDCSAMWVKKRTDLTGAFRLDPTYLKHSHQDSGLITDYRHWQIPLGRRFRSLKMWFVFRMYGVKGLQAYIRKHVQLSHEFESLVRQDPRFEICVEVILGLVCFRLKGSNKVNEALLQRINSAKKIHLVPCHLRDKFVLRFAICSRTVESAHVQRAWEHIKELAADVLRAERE

[5] = molecular target: TDCEFM (Enterococcus faecium, UniProt Q3Y2S5); assay: as above; format: biochemical, Enterococcus faecium W54
TDCEFM, sequence (Q3Y2S5 entry or part of it): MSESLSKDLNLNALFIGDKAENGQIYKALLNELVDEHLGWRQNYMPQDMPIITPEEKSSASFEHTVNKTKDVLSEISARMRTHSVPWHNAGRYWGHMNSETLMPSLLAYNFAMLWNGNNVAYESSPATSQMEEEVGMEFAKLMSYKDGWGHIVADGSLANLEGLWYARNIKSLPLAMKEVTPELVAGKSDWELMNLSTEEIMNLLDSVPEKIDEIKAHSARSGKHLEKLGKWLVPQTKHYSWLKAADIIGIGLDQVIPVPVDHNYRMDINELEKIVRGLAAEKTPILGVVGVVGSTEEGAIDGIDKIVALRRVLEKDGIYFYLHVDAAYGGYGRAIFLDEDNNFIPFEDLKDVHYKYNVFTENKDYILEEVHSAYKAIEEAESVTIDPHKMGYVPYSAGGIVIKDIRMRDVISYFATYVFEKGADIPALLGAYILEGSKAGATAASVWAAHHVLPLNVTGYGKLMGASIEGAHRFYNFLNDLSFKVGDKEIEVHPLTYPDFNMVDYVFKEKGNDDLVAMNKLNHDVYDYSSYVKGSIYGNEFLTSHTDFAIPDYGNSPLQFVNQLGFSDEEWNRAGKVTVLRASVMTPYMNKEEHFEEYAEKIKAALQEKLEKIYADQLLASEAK

[6] = tested on: E. faecium W54; assay: Levodopa decarboxylation by stationary batch cultures co-incubated with human DOPA decarboxylase inhibitors; conditions: E. faecium W54, OD600 ~2.0, stationary phase, 15 min, 100 µM levodopa, equimolar or 21.7 µM carbidopa
[7] = molecular target: bacterial TDCs versus human DOPA decarboxylase; assay: Comparison of the inhibitory constants (Ki^TDC/Ki^DDC); format: biochemical; conditions: over the three bacterial TDCs
Protocol: (§1) Enzyme kinetics were performed in 200 mM potassium acetate buffer containing 0.1 mM PLP (pyridoxal-5-phosphate, P9255, Sigma, The Netherlands) and 10 nM of enzyme at pH 5 for TDCEFS and TDCEFM, and pH 4.5 for ^PTDCEFM. […] Michaelis–Menten kinetic curves were fitted using GraphPad Prism 7. […] Reactions were stopped with 0.7% HClO4, filtered and analyzed on the HPLC-ED-system described below.

[8] = tested on: TDCEFM (tyrosine decarboxylase from E. faecium W54); assay: Michaelis–Menten enzyme kinetics of purified tyrosine decarboxylase; format: biochemical, Enterococcus faecium W54
From the text: (§2) To further characterize the substrate specificity and kinetic parameters of the bacterial TDCs, tdc genes from E. faecalis v583 (TDCEFS) and E. faecium W54 (TDCEFM and ^PTDCEFM) were expressed in Escherichia coli BL21 (DE3) and then purified.
(§3) The human DOPA decarboxylase gene cloned in pET15b was ordered from GenScript (Piscataway, USA) (Supplementary Table 6). TDC-encoding genes from E. faecalis v583 (TDCEFS, accession: EOT87933), E. faecium W54 (TDCEFM, accession: MH358385; ^PTDCEFM, accession: MH358384) were amplified using Phusion High-fidelity DNA polymerase and primers listed in Supplementary Table 8. All amplified genes were cloned in pET15b, resulting in pSK18, pSK11, and pSK22, respectively (Supplementary Table 6). Plasmids were maintained in E. coli DH5α and verified by Sanger sequencing before transformation to E. coli BL21 (DE3). Overnight cultures were diluted 1:50 in fresh LB medium with the appropriate antibiotic and grown to OD600 = 0.7–0.8. Protein translation was induced with 1 mM Isopropyl β-D-1-thiogalactopyranoside (IPTG, 11411446001, Roche Diagnostics) and cultures were incubated overnight at 18 °C. The cells were washed with 1/5th of 1 × ice-cold PBS and stored at −80 °C or directly used for protein isolation. Cell pellets were thawed on ice and resuspended in 1/50th of buffer A (300 mM NaCl; 10 mM imidazole; 50 mM KPO4, pH 7.5) containing 0.2 mg/mL lysozyme (105281, Merck) and 2 µg/mL DNAse (11284932001, Roche Diagnostics), and incubated for at least 10 min on ice before sonication (10 cycles of 15 s with 30 s cooling at 8 microns amplitude) using Soniprep-150 plus (Beun de Ronde, Abcoude, The Netherlands). Cell debris were removed by centrifugation at 20,000 × g for 20 min at 4 °C. The 6 × his-tagged proteins were purified using a nickel-nitrilotriacetic acid (Ni-NTA) agarose matrix (30250, Qiagen). Cell-free extracts were loaded on 0.5 ml Ni-NTA matrixes and incubated on a roller shaker for 2 h at 4 °C. The Ni-NTA matrix was washed three times with 1.5 ml buffer B (300 mM NaCl; 20 mM imidazole; 50 mM KPO4, pH 7.5) before elution with buffer C (300 mM NaCl; 250 mM imidazole; 50 mM KPO4, pH 7.5). Imidazole was removed from purified protein fractions using Amicon Ultra centrifugal filters (UFC505024, Merck) and washed three times and reconstituted in buffer D (50 mM Tris-HCL; 300 mM NaCl; pH 7.5) for TDCEFS, and TDCEFM, buffer E (100 mM KPO4; pH 7.4) for ^PTDCEFM and buffer F (100 mM KPO4; 0.1 mM pyridoxal-5-phosphate; pH 7.4) for DDC. Protein concentrations were measured spectrophotometrically (Nanodrop 2000, Isogen, De Meern, The Netherlands) using the predicted extinction coefficient and molecular weight from ExPASy ProtParam tool (www.web.expasy.org/protparam/).
as §1

[9] = tested on: T4, ^PTDCEFM (paralogous tyrosine decarboxylase from E. faecium W54); assay: Michaelis–Menten enzyme kinetics of purified paralogous tyrosine decarboxylase; format: biochemical, Enterococcus faecium W54
T4 construct: 6xHis; made in house; host or cells: Escherichia coli BL21 (DE3), plasmid pSK22 (pET15b)
From the text: as §2, §3, §1

[10] = tested on: T5, TDCEFS (tyrosine decarboxylase from E. faecalis v583); assay: Michaelis–Menten enzyme kinetics of purified tyrosine decarboxylase; format: biochemical, Enterococcus faecalis v583
T5 construct: 6xHis; made in house; host or cells: Escherichia coli BL21 (DE3), plasmid pSK18 (pET15b)
From the text: as §2, §3, §1

[11] = tested on: L. brevis W63; assay: Bacterial cultures incubated anaerobically with levodopa, HPLC-ED; conditions: L. brevis W63, overnight culture, anaerobic, 37 °C, 100 µM levodopa
[12] = tested on: E. faecalis v583; assay: as above; format: cell-based, Enterococcus faecalis v583; conditions: E. faecalis v583 (enterococcal isolates), overnight culture, anaerobic, 37 °C, 100 µM levodopa
[13] = tested on: E. faecium W54; assay: as above; format: cell-based, Enterococcus faecium W54; conditions: E. faecium W54 (enterococcal isolates), overnight culture, anaerobic, 37 °C, 100 µM levodopa
[14] = substrate: N[C@@H](Cc1ccc(O)c(O)c1)C(=O)O; assay: purified protein, by the assay type; conditions: other: DDC, levodopa as substrate, as used for Ki
[15] = levodopa as substrate, as used for Ki
[16] = pH 5.0, 10 nM enzyme, substance as substrate
[17] = ^PTDCEFM, pH 4.5, 10 nM enzyme, substance as substrate

C[C@@](Cc1ccc(O)c(O)c1)(NN)C(=O)O [carbidopa]
levodopa conversion by batch culture on co-incubation with carbidopa [1]: unaffected
IC50 [2]: 93.8 µM
HillSlope ([2]; TDCEFS, IC50 curve): 1.6
[IC50]/[s] ([2]; TDCEFS, [S] levodopa 1000 µM): 9%
Ki ([2]; read-out: Ki=IC50/(1+([S]/Km))): 70.6 µM
IC50 [3]: 201 µM
HillSlope ([3]; PTDCEFM, IC50 curve): 1.1
[IC50]/[s] ([3]; PTDCEFM, [S] levodopa 500 µM): 40%
Ki ([3]; read-out: Ki=IC50/(1+([S]/Km))): 95.1 µM
IC50 [4]: 0.01 µM
HillSlope ([4]; DDC, IC50 curve): 1.16
[IC50]/[s] ([4]; DDC, [S] levodopa 100 µM): 0.01%
Ki ([4]; read-out: Ki=IC50/(1+([S]/Km))): 0.005 µM
IC50 [5]: 79.2 µM
HillSlope ([5]; TDCEFM, IC50 curve): 1.3
[IC50]/[s] ([5]; TDCEFM, [S] levodopa 1000 µM): 8%
Ki ([5]; read-out: Ki=IC50/(1+([S]/Km))): 69.6 µM
levodopa conversion by batch culture on co-incubation with carbidopa [6]: unaffected
Ki^TDC/Ki^DDC, times more potent inhibitor of human DOPA decarboxylase than bacterial TDCs [7]: 1.4–1.9 × 10^4

N[C@@H](Cc1ccc(O)c(O)c1)C(=O)O [levodopa, L-3,4-dihydroxyphenylalanine]
Km [8, 15]: 7240 µM
Kcat [8, 16]: 42.48 ± 2.22 s⁻¹
Km [8, 16]: 7200 ± 800 µM
Vmax [8, 16]: 25.5 ± 1.3 µM/min
Km ([9]; PTDCEFM, levodopa as substrate, as used for Ki): 448 µM
Kcat [9, 17]: 5.707 ± 0.35 s⁻¹
Km [9, 17]: 400 ± 100 µM
Vmax [9, 17]: 3.4 ± 0.2 µM/min
Km [10, 15]: 3040 µM
Kcat [10, 16]: 58.85 ± 2.28 s⁻¹
Km [10, 16]: 3000 ± 400 µM
Vmax [10, 16]: 35.3 ± 1.4 µM/min

N[C@@H](Cc1ccc(O)cc1)C(=O)O [tyrosine, L-tyrosine]
conversion of tyrosine and levodopa into tyramine and dopamine by the culture [11]: able to convert
Kcat [8, 16]: 36.73 ± 4.12 s⁻¹
Km [8, 16]: 1500 ± 300 µM
Vmax [8, 16]: 22 ± 2.5 µM/min
conversion of tyrosine and levodopa into tyramine and dopamine by the culture [12]: able to convert
conversion of tyrosine and levodopa into tyramine and dopamine by the culture [13]: able to convert
Kcat [9, 17]: 7.26 ± 0.32 s⁻¹
Km [9, 17]: 200 ± 50 µM
Vmax [9, 17]: 4.4 ± 0.2 µM/min
Kcat [10, 16]: 116 ± 4.8 s⁻¹
Km [10, 16]: 600 ± 100 µM
Vmax [10, 16]: 69.6 ± 2.9 µM/min

B1: human DOPA decarboxylase (DDC) (Homo sapiens) (protein)
chain: T3 sequence (P20711 1-480)
Km [14]: 87.3 µM
